# Test results from patent US8247211B2, “Glycopeptide antibiotics” (American Cyanamid Company, priority 2001, dated 2012).
# How the values were obtained:
# Assay in all cases: In vitro antibacterial evaluation: minimum inhibitory concentration (MIC), broth dilution method
# Type in all cases: cell-based
# Escherichia coli = system: Escherichia coli
# Procedure, shortened: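 NCCLS M7-A2 broth dilution; Muller-Hinton II […]; 5×10^5 CFU/mL; 64-0.06 μg/mL. MIC = lowest concentration with no growth.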
# Staphylococcus sp. = details: broth dilution, 18 hours at 35° C.
# Procedure, shortened: (§1)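 Values are minimum inhibitory concentrations, meaning the smallest antibiotic concentration that stops growth of the organism. They come from broth dilution in Muller-Hinton II […] per NCCLS guidance (M7-A2), using 5×10^5 CFU/mL and concentrations from 64 to 0.06 μg/mL.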
# Streptococcus sp. = system: Streptococcus sp.
# Procedure, shortened: as §1
# Enterococcus sp. = system: Enterococcus sp.
# Procedure, shortened: as §1
# [1] = broth dilution, inoculum 5×10^5 CFU/mL, 18 hours at 35° C.
compound,measurement,setting,value
CC(C)=CCOc1cccc(C2OCC3OC(OC4C(CO)OC(Oc5ccc(CC6NC(=O)C(C(C)c7ccccc7)NC(=O)CNC(=O)C(CO)NC(=O)C(C(O)C7CNC(=N)N7C7OC(CO)C(O)C(O)C7O)NC(=O)C(C(O)C7CNC(=N)N7)NC6=O)cc5)C(O)C4O)C(O)C(O)C3O2)c1 (stereo not shown) [Example 165],MIC Escherichia coli (ATCC 25922),Escherichia coli; strain ATCC 25922,>64 mg/L
same,MIC Escherichia coli (GC 4559),Escherichia coli; strain GC 4559,>64 mg/L
same,MIC Escherichi coli (GC 4560),Escherichia coli; strain GC 4560,16 mg/L
same,MIC Coagulase Negative Staphylococcus (GC 4547),Staphylococcus sp.; 5×10^5 CFU/mL,16 mg/L
same,MIC Coagulase Negative Staphylococcus (GC 4548),Staphylococcus sp.; 5×10^5 CFU/mL,8 mg/L
same,MIC Coagulase Negative Staphylococcus (GC 4549),Staphylococcus sp.; 5×10^5 CFU/mL,8 mg/L
same,MIC Coagulase Negative Staphylococcus (GC 4551),Staphylococcus sp.; 5×10^5 CFU/mL,16 mg/L
same,MIC Coagulase Negative Staphylococcus (GC 6257),Staphylococcus sp.; 5×10^5 CFU/mL,8 mg/L
same,MIC Staphylococcus aureus (ATCC 29213),Staphylococcus sp.; 5×10^5 CFU/mL,16 mg/L
same,MIC Staphylococcus aureus (GC 1131),Staphylococcus sp.; 5×10^5 CFU/mL,16 mg/L
same,MIC Staphylococcus aureus (GC 3051),Staphylococcus sp.; 5×10^5 CFU/mL,32 mg/L
same,MIC Staphylococcus aureus (GC 3053),Staphylococcus sp.; 5×10^5 CFU/mL,16 mg/L
same,MIC Staphylococcus aureus (GC 4541),Staphylococcus sp.; 5×10^5 CFU/mL,16 mg/L
same,MIC Staphylococcus aureus (GC 4542),Staphylococcus sp.; 5×10^5 CFU/mL,16 mg/L
same,MIC Staphylococcus aureus (GC 4544),Staphylococcus sp.; 5×10^5 CFU/mL,16 mg/L
same,MIC Staphylococcus aureus (GC 4545),Staphylococcus sp.; 5×10^5 CFU/mL,16 mg/L
same,MIC Staphylococcus aureus-SMITH (GC 4543),Staphylococcus sp.; 5×10^5 CFU/mL,16 mg/L
same,MIC Staphylococcus haemolyticus (GC 4546),Staphylococcus sp.; 5×10^5 CFU/mL,16 mg/L
same,MIC Staphylococcus aureus (ATCC 29213),Staphylococcus sp.; strain ATCC 29213,16 mg/L
same,MIC Staphylococcus aureus (GC 1131),Staphylococcus sp.; strain GC 1131,16 mg/L
same,MIC Staphylococcus aureus (GC 3051),Staphylococcus sp.; strain GC 3051,32 mg/L
same,MIC Staphylococcus aureus (GC 3053),Staphylococcus sp.; strain GC 3053,16 mg/L
same,MIC Staphylococcus aureus (GC 4541),Staphylococcus sp.; strain GC 4541,16 mg/L
same,MIC Staphylococcus aureus (GC 4542),Staphylococcus sp.; strain GC 4542,16 mg/L
same,MIC Staphylococcus aureus-SMITH (GC 4543),Staphylococcus sp.; strain GC 4543,16 mg/L
same,MIC Staphylococcus aureus (GC 4544),Staphylococcus sp.; strain GC 4544,16 mg/L
same,MIC Staphylococcus aureus (GC 4545),Staphylococcus sp.; strain GC 4545,16 mg/L
same,MIC Staphylococcus haemolyticus (GC 4546),Staphylococcus sp.; strain GC 4546,16 mg/L
same,MIC Coagulase Negative Staphylococcus (GC 4547),Staphylococcus sp.; strain GC 4547,16 mg/L
same,MIC Coagulase Negative Staphylococcus (GC 4548),Staphylococcus sp.; strain GC 4548,8 mg/L
same,MIC Coagulase Negative Staphylococcus (GC 4549),Staphylococcus sp.; strain GC 4549,8 mg/L
same,MIC Coagulase Negative Staphylococcus (GC 4551),Staphylococcus sp.; strain GC 4551,16 mg/L
same,MIC Coagulase Negative Staphylococcus (GC 6257),Staphylococcus sp.; strain GC 6257,8 mg/L
same,MIC Streptococcus agalactiae (GC 4564),Streptococcus sp.; [1],1 mg/L
same,MIC Streptococcus pneumoniae (ATCC 6301),Streptococcus sp.; [1],0.12 mg/L
same,MIC Streptococcus pneumoniae (GC 1894),Streptococcus sp.; [1],<0.06 mg/L
same,MIC Streptococcus pneumoniae (GC 4565),Streptococcus sp.; [1],0.12 mg/L
same,MIC Streptococcus pyogenes (GC 4563),Streptococcus sp.; [1],0.12 mg/L
same,MIC Streptococcus pneumoniae (ATCC 6301),Streptococcus sp.; strain ATCC 6301,0.12 mg/L
same,MIC Streptococcus pneumoniae (GC 1894),Streptococcus sp.; strain GC 1894,<0.06 mg/L
same,MIC Streptococcus pyogenes (GC 4563),Streptococcus sp.; strain GC 4563,0.12 mg/L
same,MIC Streptococcus agalactiae (GC 4564),Streptococcus sp.; strain GC 4564,1 mg/L
same,MIC Streptococcus pneumoniae (GC 4565),Streptococcus sp.; strain GC 4565,0.12 mg/L
same,MIC Enterococcus avium (GC 4558),Enterococcus sp.; [1],16 mg/L
same,MIC Enterococcus faecalis (ATCC 29212),Enterococcus sp.; [1],16 mg/L
same,MIC Enterococcus faecalis (GC 2242),Enterococcus sp.; [1],16 mg/L
same,MIC Enterococcus faecalis (GC 2691),Enterococcus sp.; [1],16 mg/L
same,MIC Enterococcus faecalis (GC 3059),Enterococcus sp.; [1],16 mg/L
same,MIC Enterococcus faecalis (GC 4552),Enterococcus sp.; [1],16 mg/L
same,MIC Enterococcus faecalis (GC 4553),Enterococcus sp.; [1],16 mg/L
same,MIC Enterococcus faecalis (GC 4554),Enterococcus sp.; [1],32 mg/L
same,MIC Enterococcus faecalis (GC 6189),Enterococcus sp.; [1],16 mg/L
same,MIC Enterococcus faecium (GC 2243),Enterococcus sp.; [1],16 mg/L
same,MIC Enterococcus faecium (GC 4556),Enterococcus sp.; [1],16 mg/L
same,MIC Enterococcus faecium (GC 4557),Enterococcus sp.; [1],16 mg/L
same,MIC Enterococcus faecalis (ATCC 29212),Enterococcus sp.; strain ATCC 29212,16 mg/L
same,MIC Enterococcus faecalis (GC 2242),Enterococcus sp.; strain GC 2242,16 mg/L
same,MIC Enterococcus faecium (GC 2243),Enterococcus sp.; strain GC 2243,16 mg/L
same,MIC Enterococcus faecalis (GC 2691),Enterococcus sp.; strain GC 2691,16 mg/L
same,MIC Enterococcus faecalis (GC 3059),Enterococcus sp.; strain GC 3059,16 mg/L
same,MIC Enterococcus faecalis (GC 4552),Enterococcus sp.; strain GC 4552,16 mg/L
same,MIC Enterococcus faecalis (GC 4553),Enterococcus sp.; strain GC 4553,16 mg/L
same,MIC Enterococcus faecalis (GC 4554),Enterococcus sp.; strain GC 4554,32 mg/L
same,MIC Enterococcus faecium (GC 4556),Enterococcus sp.; strain GC 4556,16 mg/L
same,MIC Enterococcus faecium (GC 4557),Enterococcus sp.; strain GC 4557,16 mg/L
same,MIC Enterococcus avium (GC 4558),Enterococcus sp.; strain GC 4558,16 mg/L
same,MIC Enterococcus faecalis (GC 6189),Enterococcus sp.; strain GC 6189,16 mg/L
